{"source": "paper PMC3606385", "about": "(PLoS ONE, 2013)", "key": {"[1]": {"molecular_target": "T1, rat liver microsomal 11β-HSD1 (Rattus norvegicus, UniProt P16232)", "T1 construct": "Rat liver, testis and kidney microsomes were prepared as described previously; from tissue; host or cells: rat liver microsomes", "T1 sequence (P16232 whole entry)": "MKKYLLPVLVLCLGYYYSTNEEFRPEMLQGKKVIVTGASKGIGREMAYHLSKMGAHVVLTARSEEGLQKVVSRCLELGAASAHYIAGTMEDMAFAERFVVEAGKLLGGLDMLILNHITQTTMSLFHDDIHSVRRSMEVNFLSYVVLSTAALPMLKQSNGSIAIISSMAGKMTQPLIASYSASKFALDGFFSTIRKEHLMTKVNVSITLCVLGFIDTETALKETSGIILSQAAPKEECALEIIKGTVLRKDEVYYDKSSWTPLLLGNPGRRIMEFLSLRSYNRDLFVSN", "test": "Mode of inhibition (Lineweaver-Burk), rat liver microsomal 11β-HSD1", "type": "biochemical", "settings": "Lineweaver-Burk plot, substrate 11DHC", "procedure": "The rat testis and liver or human liver microsomes were used for 11β-HSD1 assay. 11β-HSD1 activity was performed in the microsome according to a previously described method. In brief, the assay tubes contained 25 nM substrate 11DHC (for rat) or cortisone (for human), spiked with 30,000 cpm their respective ^3H-11keto-steroid, 0.2 mM NADPH and 5 mM glucose-6-phosphaare in the PBS buffer. 2 µg microsomes were added to each tube to initiate the reaction and the reaction mixture was incubated for up to 2 hrs, during which the reaction is within the linear range. The rest procedure was similar to 11β-HSD1 assay in intact cells.\n(§1) The IC50 was determined by adding different concentrations of each compound in the 11β-HSD1 or 11β-HSD2 reaction as described. The mode of inhibition was assayed by adding various concentrations of steroid substrates in the presence of an inhibitor as described.\nEnzyme data were subjected to nonlinear analysis by GraphPad (Version 5, GraphPad Software Inc., San Diego, CA) for IC50. Lineweaver-Burk plot was used for the mode of inhibition. Data were subjected to analysis by one-way ANOVA followed by Tukey's multiple comparisons testing to identify significant differences between groups when three were calculated. Differences were regarded as significant at P<0.05."}, "Human 11β-HSD1": {"molecular_target": "T2, Human 11β-HSD1 (Homo sapiens, UniProt P28845)", "T2 construct": "expressed in transfected cells; host or cells: CHOP cells (transient, FuGENE)", "T2 sequence (P28845 whole entry)": "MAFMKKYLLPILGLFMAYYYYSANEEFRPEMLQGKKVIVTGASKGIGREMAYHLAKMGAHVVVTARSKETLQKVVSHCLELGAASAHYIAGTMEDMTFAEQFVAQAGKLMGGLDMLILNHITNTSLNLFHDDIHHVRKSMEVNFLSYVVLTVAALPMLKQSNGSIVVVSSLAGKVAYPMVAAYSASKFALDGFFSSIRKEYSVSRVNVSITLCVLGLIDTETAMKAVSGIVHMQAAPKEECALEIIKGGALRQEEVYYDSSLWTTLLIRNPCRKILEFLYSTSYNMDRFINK", "test": "11β-HSD1 assay in intact CHOP cells transfected with human HSD11B1", "type": "cell-based", "procedure": "An expression plasmid was constructed to express human 11β-HSD1 (HSD11B1) cDNA in pcDNA I expression vector from its original human HSD11B1 vector (pBluescriptSK+).[15]. The Escherichia coli transformants carrying an insert were selected by colony hybridization, and a clone with the insert in the correct orientation relative to the vector T7 promoter was identified by restriction mapping. All transfections were carried out on 80% confluent cultures in 12-well plates. Aliquots of 1 µg HSD11B1 pcDNA I were transfected into mammalian CHOP cells with the FuGENE Transfection Reagent (Roche) according to manufacturer's protocol. Cells were allowed to grow for 24 hours in media containing 10% fetal bovine serum. Then media were removed and cells were harvested for 11β-HSD1 activity assay.\n11β-HSD1 reductase activity was performed in intact cells using endogenous cofactor NADPH as described previously. […] 25×10^3 cells were added to each tube to initiate the reaction and the reaction mixture was incubated for up to 2 hrs, during which the reaction is within the linear range. At the end of reaction, the reaction was stopped by adding 2 ml ice-cold ether. The steroids were extracted, and the organic layer was dried under nitrogen. The steroids were separated chromatographically on thin layer plates in chloroform and methanol (90∶10, v/v), and the radioactivity was measured using a scanning radiometer (System AR2000, Bioscan Inc., Washington, DC) as described previously. The percentage conversion of 11DHC to CORT or cortisone to cortisol was calculated by dividing the radioactive counts identified as 11-OH-steroids by the total counts.\nas §1"}, "[2]": {"tested_on": "Sprague-Dawley rats with high-fat-diet-induced metabolic syndrome", "test": "High-fat-diet-induced metabolic syndrome treatment in rats", "type": "in vivo, rat", "settings": "for Effect on serum LDL / Effect on serum glucose / Effect on serum total cholesterol / Effect on serum triglyceride (Tg): 200 mg/kg", "procedure": "By the end of curcumin treatment, rats were euthanized. The body, liver, kidney and testis weights were recorded. Sera were collected after placing the bloods at room temperature for 25 min and centrifuged at 1500 g/min for 20 minutes. Sera were used for measurement of serum glucose, and lipid analysis. Serum glucose, total cholesterol, low density […], apolipoprotein A1 is (APOA1) and apolipoprotein B (APOB) were measured using a Hitachi 7600 biochemical analyzer (Hitachi, Japan) according to standard clinical protocol."}, "[3]": {"settings": "human, oral doses up to 8 g; cited from earlier work"}, "Human 11β-HSD2": {"molecular_target": "T3, Human 11β-HSD2 (Homo sapiens, UniProt P80365)", "T3 construct": "tissue Gentest (Woburn, MA); host or cells: human kidney microsomes", "T3 sequence (P80365 1-405)": "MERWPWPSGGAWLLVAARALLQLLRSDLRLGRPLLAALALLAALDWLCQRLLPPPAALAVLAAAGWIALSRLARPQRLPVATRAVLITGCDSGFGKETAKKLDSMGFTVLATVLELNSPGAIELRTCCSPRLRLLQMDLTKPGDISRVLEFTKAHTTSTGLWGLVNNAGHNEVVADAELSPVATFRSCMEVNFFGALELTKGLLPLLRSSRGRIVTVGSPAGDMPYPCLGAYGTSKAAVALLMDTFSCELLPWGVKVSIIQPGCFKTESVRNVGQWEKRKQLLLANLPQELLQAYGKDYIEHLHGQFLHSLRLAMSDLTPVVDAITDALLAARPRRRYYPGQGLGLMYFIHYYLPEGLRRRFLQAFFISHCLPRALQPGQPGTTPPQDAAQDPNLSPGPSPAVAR", "test": "11β-HSD2 assay in human kidney microsomes", "type": "biochemical", "settings": "human kidney microsomes", "procedure": "The rat and human kidney microsomes were used for 11β-HSD2 sources. 11β-HSD2 activity was performed in the microsome according to a previously described method. In brief, the assay tubes contained 25 nM substrate CORT (for rat) or cortisol (for human), spiked with 30,000 cpm their respective ^3H-11β-hydroxyl steroid, 0.2 mM NAD+ and 0.1 mM DTT in the PBS buffer. 8 (rat) or 20 (human) µg kidney microsomes were added to each tube to initiate the reaction and the reaction mixture was incubated for up to 3 hrs, during which the reaction is within the linear range. The rest procedure was similar to 11β-HSD1 assay. The percentage conversion of CORT to 11DHC or cortisol to cortisone was calculated by dividing the radioactive counts identified as 11keto-steroids by the total counts.\nas §1"}, "[4]": {"settings": "HFD rats, 200 mg/kg curcumin, 2 months, vs HFD"}, "[5]": {"settings": "HFD rats, 200 mg/kg curcumin, 2 months, vs HFD, listed as Curcumin"}, "[6]": {"settings": "HFD rats, 200 mg/kg curcumin, 2 months, vs HFD, listed as curcumin"}, "[7]": {"settings": "HFD rats, 200 mg/kg/day gavage, 2 months, Mean ± SEM, n = 10"}}, "note": "Several values for one entry are separate records, joined by “and”; a condition that tells them apart may be missing. Equal entries are not always repeated. Entries after “also recorded” stand apart in the source; their conditions may differ. Where two headings read alike, the source gives them in different places. Marks after values point to notes of the source that are not given here."}
{"compound": "COc1cc(/C=C/C(=O)CC(=O)/C=C/c2ccc(O)c(OC)c2)ccc1O", "note": "[1 (Curcumin), Curcumin]", "values": [{"measurement": "Mode of inhibition of rat 11β-HSD1", "setting": "[1]", "result": "competitive inhibitor"}, {"measurement": "IC50", "setting": "Human 11β-HSD1; CHOP cells transfected with human HSD11B1, read-out: Human 11β-HSD1 IC50 (nM) in CHOP cells", "result": 2300, "unit": "nM"}, {"measurement": "IC50", "setting": "Human 11β-HSD1; IC50 human 11β-HSD1 in intact cells, intact CHOP cells transfected with human HSD11B1", "result": "5780 ± 2220", "unit": "nM"}, {"measurement": "IC50", "setting": "Human 11β-HSD1; intact CHOP cells transfected with human HSD11B1, read-out: IC50 human 11β-HSD1 in intact cells", "result": "2290 nM and 2000 to 6000 nM and 2300 nM"}, {"measurement": "Effect on lipid profiles / HFD-induced dyslipidemia", "setting": "[2]; 200 mg/kg/day oral, HFD rats", "result": "effectively improved; also recorded: effectively prevented"}, {"measurement": "Effect on serum APOA1", "setting": "[2]; [4]", "result": "significantly lowered"}, {"measurement": "Effect on serum APOB", "setting": "[2]; [4]", "result": "significantly lowered"}, {"measurement": "Effect on serum LDL", "setting": "[2]; [5]", "result": "reduced"}, {"measurement": "Effect on serum glucose", "setting": "[2]; [5]", "result": "reduced"}, {"measurement": "Effect on serum total cholesterol", "setting": "[2]; [5]", "result": "reduced"}, {"measurement": "Effect on serum triglyceride (Tg)", "setting": "[2]; [5]", "result": "reduced"}, {"measurement": "Effect on serum LDL", "setting": "[2]; [6]", "result": "significantly lowered"}, {"measurement": "Effect on serum glucose", "setting": "[2]; [6]", "result": "significantly lowered"}, {"measurement": "Effect on serum total cholesterol", "setting": "[2]; [6]", "result": "significantly lowered"}, {"measurement": "Effect on serum triglyceride (Tg)", "setting": "[2]; [6]", "result": "significantly lowered"}, {"measurement": "Body weight (g)", "setting": "[2]; [7]", "result": "324.8±6.614^b g"}, {"measurement": "Kidney(g)", "setting": "[2]; [7]", "result": "1.309±0.0756^a g"}, {"measurement": "Liver(g)", "setting": "[2]; [7]", "result": "10.67±0.297^a g"}, {"measurement": "Testis(g)", "setting": "[2]; [7]", "result": "2.664±0.1012^a g"}, {"measurement": "Weight Gain(g)", "setting": "[2]; [7]", "result": "136.3±6.516^c g"}, {"measurement": "Effect on HFD-induced increase of body weight gain", "setting": "[2]; two months of treatment", "result": "reduced"}, {"measurement": "Effect on HFD-induced increase of liver weight", "setting": "[2]; two months of treatment", "result": "reduced"}, {"measurement": "Effect on kidney weight", "setting": "[2]; two months of treatment", "result": "did not affect"}, {"measurement": "Effect on testis weight", "setting": "[2]; two months of treatment", "result": "did not affect"}, {"measurement": "Adverse effects during treatment", "setting": "[2]; two-month treatment, 200 mg/kg/day", "result": "no adverse effects"}, {"measurement": "Time to peak level after oral administration", "setting": "[3]", "result": "≤ 1", "unit": "h"}, {"measurement": "IC50", "setting": "Human 11β-HSD2; read-out: IC50 (nM) Human 11β-HSD2", "result": 14600, "unit": "nM"}, {"measurement": "IC50", "setting": "Human 11β-HSD2; read-out: IC50 human 11β-HSD2", "result": 14600, "unit": "nM"}]}
